Data taken from patent US20160081912A1, “COMPOSITIONS FOR IMPROVING THE HAIR, SKIN, AND NAILS” (FYBRANDS CORP., priority 2013, published 2016).

Assay: Solubility of cycloastragalus in water, acetone and oil carriers
Type: physicochemical
Description: In certain embodiments, the disclosure provides compositions to deliver the active ingredient to the root bulb of the hair follicle. Cycloastragalus is not soluble in water. Creating a cream formulation could possibly lead to clogging of pores at the site of the hair follicle, which could negatively affect restoration of the follicle. In certain aspects, the present disclosure relates to delivery of cycloastragalus using oil-based formulations. Oil is absorbed into the stratum corneum and deeper layers of the skin where the root bulb cells are located.
Initial attempts at determining an appropriate oil carrier were done using either or in combination together C10-30 Cholesterol and Lanosterol esters.
Further attempts were then made in to dissolve the cycloastragalus in oil carrier.
Cycloastragalus is soluble in acetone. We evaluated the possibility that cycloastragalus could be first dissolved in acetone and then put into solution with an oil carrier. Since acetone evaporates to completion out of any open system, it could be removed leaving the cycloastragalus in solution. One should keep in mind that acetone is incredibly flammable, and methods for removing acetone should be chosen carefully.

With `CC(C)(O)[C@@H]1CC[C@](C)([C@H]2[C@@H](O)C[C@@]3(C)[C@@H]4C[C@H](O)[C@H]5C(C)(C)[C@@H](O)CC[C@@]56C[C@@]46CC[C@]23C)O1` [Cycloastragalus, cycloastragenol] the solubility in acetone (acetone) was “soluble”, the “dissolving in oil carrier” value (oil carrier, direct dissolution without acetone) was “limited success” and the solubility in water was “not soluble”. The solubility in water (listed as cycloastragalus) was “very limited results”.
